In test [1] the target is T1, Cannabinoid receptor 2 (Homo sapiens, UniProt P34972). Nature of the test: Binding affinity to CB2 receptor (unknown origin).
Test [2] concerns the target T2, Cannabinoid receptor 1 (Homo sapiens, UniProt P21554). Nature of the test: Binding affinity to CB1 receptor (unknown origin).
Test [3] concerns the target T1, Cannabinoid receptor 2. Nature of the test: Inhibition of CB2 receptor (unknown origin).
Test [4] is filed under the species Homo sapiens. Nature of the test: Selectivity index, ratio of Ki for CB1 receptor (unknown origin) to Ki for CB2 receptor (unknown origin).
The target in test [5] is T1, Cannabinoid receptor 2. Nature of the test: Agonist activity at human CB2 receptor expressed in mouse AtT-20 cells co expressing GIRK by FLIPR assay. The format is cell-based.
The species entered for test [6] is Homo sapiens. Nature of the test: Selectivity index, ratio of EC50 for human CB1 receptor to Ki for human CB2 receptor.
Test [7] deals with T2, Cannabinoid receptor 1. In words: Agonist activity at human CB1 receptor expressed in mouse AtT-20 cells co expressing GIRK by FLIPR assay. In kind it is cell-based.
Test [8] concerns the target T1, Cannabinoid receptor 2. Nature of the test: Activity at CB2 receptor (unknown origin).

A value given as a limit tells only on which side of the number the result lay.

By Ki is commonly meant the equilibrium dissociation constant of an inhibitor or competing ligand from its target. Read a high Ki as a looser hold on the target. By IC50 is commonly meant the concentration that gives 50% inhibition. A lower IC50 goes with greater potency. As usually defined, the EC50 is the midpoint of the concentration-response curve.

T2 sequence (P21554 whole entry): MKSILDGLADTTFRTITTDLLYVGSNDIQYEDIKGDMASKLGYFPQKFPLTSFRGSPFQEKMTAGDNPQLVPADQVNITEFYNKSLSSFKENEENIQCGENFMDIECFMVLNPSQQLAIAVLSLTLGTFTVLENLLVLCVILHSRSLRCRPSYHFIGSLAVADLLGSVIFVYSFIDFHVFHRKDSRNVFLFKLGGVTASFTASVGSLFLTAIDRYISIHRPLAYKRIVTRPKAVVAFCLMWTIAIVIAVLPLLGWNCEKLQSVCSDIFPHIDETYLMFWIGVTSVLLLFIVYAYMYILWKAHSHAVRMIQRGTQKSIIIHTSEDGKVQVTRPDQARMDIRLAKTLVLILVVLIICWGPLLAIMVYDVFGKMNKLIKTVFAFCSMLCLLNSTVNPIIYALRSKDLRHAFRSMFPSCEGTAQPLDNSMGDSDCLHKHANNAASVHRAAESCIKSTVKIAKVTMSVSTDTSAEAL
T1 sequence (P34972 whole entry): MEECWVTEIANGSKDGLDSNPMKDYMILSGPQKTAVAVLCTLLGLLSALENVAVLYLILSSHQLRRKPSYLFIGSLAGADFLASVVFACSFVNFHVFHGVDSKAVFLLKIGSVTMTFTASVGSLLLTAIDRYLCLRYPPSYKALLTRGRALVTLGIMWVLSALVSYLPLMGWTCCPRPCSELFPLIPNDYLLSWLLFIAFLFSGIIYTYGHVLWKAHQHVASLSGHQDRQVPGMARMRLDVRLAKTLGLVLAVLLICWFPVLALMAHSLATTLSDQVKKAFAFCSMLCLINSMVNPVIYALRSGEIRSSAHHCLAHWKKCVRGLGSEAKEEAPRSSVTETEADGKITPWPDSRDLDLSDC

For `CCCc1sc(NC(=O)C23CC4CC(CC(C4)C2)C3)c(C(=O)O[11CH3])c1C`, the Ki on Cannabinoid receptor 2 [1] was 4.3 nM; at Cannabinoid receptor 1 [2], 1.1 µM. `[2H]C([2H])([18F])Oc1nc(NCCc2ccc(F)cc2)nc(-c2ccc(Cl)c(C(C)(C)O)c2)n1` gave an IC50 against Cannabinoid receptor 2 [3] of 1.4 nM. `CCCc1sc(NC(=O)C23CC4CC(CC(C4)C2)C3)c(C(=O)OC)c1C`: the Ratio Ki in the test filed under Homo sapiens [4] (tested as the 11C-labelled form) turned out to be 256. For the molecule `COc1cccc2c(=O)c(C(=O)NC34CC5CC(CC(C5)C3)C4)cn(CCOCC[18F])c12`, the inhibitory constant (Ki) at Cannabinoid receptor 2 [1] is 1.2 nM; on Cannabinoid receptor 1 [2], more than 10 µM. Regarding `CCCCCn1cc(C(=O)c2ccccc2OC)c2ccccc21`, the figures for the EC50 on Cannabinoid receptor 2 [5] and at Cannabinoid receptor 1 [7] were 6.9 nM and 54 nM, respectively. Besides, the Selectivity Index in the test filed under Homo sapiens [6] was 7.8. For the molecule `CC(C)[C@H](NC(=O)c1nn(Cc2ccc(F)cc2)c2ccccc12)C(N)=O`, at Cannabinoid receptor 1 [7], the EC50 is 2.1 to 7.8 nM. As to `CC(C)[C@H](NC(=O)c1nn(CC2CCCCC2)c2ccccc12)C(N)=O`, the Ratio EC50 in the test listed under Homo sapiens [6] was in the range of 1.5 to 3.2. This molecule registered an EC50 at Cannabinoid receptor 1 [7] of 2.1 to 7.8 nM. Regarding `COc1cccc2c(=O)c(C(=O)NC34CC5CC(CC(C5)C3)C4)cn(CCOCCF)c12`, the Ratio Ki in the test listed under Homo sapiens [4] (tested as the 18F-labelled form) is more than 8330.

`CCOc1nc(NC2CCCC2)nc(N2CCN(CC[18F])CC2)n1` displayed a 50% effective concentration (EC50) at Cannabinoid receptor 2 [8] of 40 nM.

With `CCCCn1cc(C(=O)c2ccccc2OC)c2ccccc21`, the results for the EC50 on Cannabinoid receptor 2 [5] and at Cannabinoid receptor 1 [7] were 4.5 nM and 178 nM, respectively. In addition, the Selectivity Index in the test listed under Homo sapiens [6] stood at 39.6.

The molecule `CCOCCn1cc(C(=O)NC23CC4CC(CC(C4)C2)C3)c(=O)c2cccc(O[11CH3])c21` registered a Ki at Cannabinoid receptor 1 [2] of more than 10 µM. As to `CCCCCn1nc(C(=O)N[C@H](C(N)=O)C(C)C)c2ccccc21`, in the test listed under Homo sapiens [6], the Ratio EC50 was 1.5 to 3.2. At Cannabinoid receptor 1 [7], the EC50 fell in the range of 2.1 to 7.8 nM. Consider `CC(C)[C@H](NC(=O)c1nn(CCCCCF)c2ccccc12)C(N)=O`, for which the Ratio EC50 in the test listed under Homo sapiens [6] lay within 1.5 to 3.2. Besides, the concentration for a half-maximal effect (EC50) on Cannabinoid receptor 1 [7] was in the range of 2.1 to 7.8 nM.
